The source of these data is PubChem BioAssay AID2060612 (Molecular Pharmacology Branch, DTP, NCI, 2025).

The test system of the experiment is 565232-114-T-J1-PDC complex spheroid viability. The experiment in a line: Anticancer human tumor 565232-114-T-J1-PDC patient-derived bladder carcinoma cell line growth inhibition [CLK]. As to conditions: for viability, T/C: stronger effect = lower value. An outline of the steps:
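Multi-cell-type spheroids combined patient-derived tumor cells with HUVEC endothelial cells and human mesenchymal stem cells. Paired agents were dosed in half-log steps down from about clinical Cmax, or from 10 microM where Cmax was unknown.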

Where [1] appears, read: curve of first compound, second compound 0.0316 µM.
[2] abbreviates: curve of first compound, second compound 0.1 µM.
The mark [3] stands for this setting: curve of first compound, second compound 0.316 µM.
The mark [4] stands for this setting: curve of first compound, second compound 1 µM.
The mark [5] stands for this setting: curve of first compound, second compound 3.16 µM.
Where [6] appears, read: curve of first compound, second compound 10 µM.

SMILES strings stand for the structures. Values joined by “and” are separate entries in the source; they are usually repeats but may differ in a detail not shown here. Equal entries are not always repeated.
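Further: spheroids exposed to compounds for 7 days before readout.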
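Wherever viability, T/C is given: 100% = DMSO vehicle wells with luminescence normalized to vehicle control.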

Consider `CC(C)CC(NC(=O)C(Cc1ccccc1)NC(=O)c1cnccn1)B(O)O` (configuration not stated) + CN1CCN(c2cc(C(=O)Nc3cc4cc(-c5cnn(C)c5)ccc4cn3)ccn2)CC1, for which the IC50 reads like this: under setting [1], 5.73 nM; under setting [2], 6.17 nM; under setting [3], less than 0.949 nM; under setting [4], less than 0.949 nM; under setting [5], less than 0.949 nM; under setting [6], less than 0.949 nM. The viability, T/C (second compound 0.0316 µM, first compound 0.000949 µM) is 120%; the viability, T/C (second compound 0.0316 µM, first compound 0.003 µM) was 109%; the viability, T/C (second compound 0.0316 µM, first compound 0.00949 µM) is 4.38%; the viability, T/C (second compound 0.0316 µM, first compound 0.03 µM) is 1.43%; the viability, T/C (second compound 0.0316 µM, first compound 0.0949 µM) was 1.54%; the viability, T/C (second compound 0.0316 µM, first compound 0.3 µM) was 1.27%. The viability, T/C was 129% (second compound 0.1 µM, first compound 0.000949 µM); 133% (second compound 0.1 µM, first compound 0.003 µM); 2.13% (second compound 0.1 µM, first compound 0.00949 µM); 1.8% (second compound 0.1 µM, first compound 0.03 µM); 1.71% (second compound 0.1 µM, first compound 0.0949 µM); 1.6% (second compound 0.1 µM, first compound 0.3 µM). For the same compound, the viability, T/C (second compound 0.316 µM, first compound 0.000949 µM) is 23.8%; the viability, T/C (second compound 0.316 µM, first compound 0.003 µM) was 25.9%; the viability, T/C (second compound 0.316 µM, first compound 0.00949 µM) was 3.56%; the viability, T/C (second compound 0.316 µM, first compound 0.03 µM) is 1.36%; the viability, T/C (second compound 0.316 µM, first compound 0.0949 µM) was 1.26%; the viability, T/C (second compound 0.316 µM, first compound 0.3 µM) is 0.65%. The viability, T/C is 0.22% (second compound 1 µM, first compound 0.000949 µM); 3% (second compound 1 µM, first compound 0.003 µM); 1.91% (second compound 1 µM, first compound 0.00949 µM); 0.18% (second compound 1 µM, first compound 0.03 µM); 2.19% (second compound 1 µM, first compound 0.0949 µM); 2.68% (second compound 1 µM, first compound 0.3 µM). The viability, T/C is, setting by setting: (second compound 3.16 µM, first compound 0.000949 µM) 0.16%; (second compound 3.16 µM, first compound 0.003 µM) 1.18%; (second compound 3.16 µM, first compound 0.00949 µM) 0.21%; (second compound 3.16 µM, first compound 0.03 µM) 0.14%; (second compound 3.16 µM, first compound 0.0949 µM) 0.16%; (second compound 3.16 µM, first compound 0.3 µM) 1.81%. The viability, T/C is, setting by setting: (second compound 10 µM, first compound 0.000949 µM) 0.1%; (second compound 10 µM, first compound 0.003 µM) 3.27%; (second compound 10 µM, first compound 0.00949 µM) 3.03%; (second compound 10 µM, first compound 0.03 µM) 0.17%; (second compound 10 µM, first compound 0.0949 µM) 1.45%; (second compound 10 µM, first compound 0.3 µM) 0.23%.
Regarding `CC(C)CC(NC(=O)C(Cc1ccccc1)NC(=O)c1cnccn1)B(O)O` (configuration not stated), the viability, T/C runs as follows: (compound 0.000949 µM) 97.2% and 89.6%; (compound 0.003 µM) 85.3% and 89.2%; (compound 0.00949 µM) 10.3% and 1.88%; (compound 0.03 µM) 4.99% and 0.69%; (compound 0.0949 µM) 2.74% and 2.59%; (compound 0.3 µM) 1.61% and 0.54%. In addition, the IC50 (curve of compound) was 5.16 nM and 5.03 nM.
As for `Nc1ccccc1NC(=O)c1ccc(CNC(=O)OCc2cccnc2)cc1`, the viability, T/C by setting is: (compound 0.0316 µM) 103% and 80.6%; (compound 0.1 µM) 94.5% and 89.7%; (compound 0.316 µM) 110% and 94.7%; (compound 1 µM) 106% and 113%; (compound 3.16 µM) 117% and 65.5%; (compound 10 µM) 2.78% and 0.64%. Moreover, the IC50 (curve of compound) was 5900 nM and 4160 nM.
On to `C=CC(=O)Nc1cc(Nc2nccc(-c3cn(C)c4ccccc34)n2)c(OC)cc1N(C)CCN(C)C`, for which the viability, T/C was 93.7% and 95.9% (compound 0.000949 µM); 76% and 82.3% (compound 0.003 µM); 101% and 91.3% (compound 0.00949 µM); 104% and 89.6% (compound 0.03 µM); 87.5% and 109% (compound 0.0949 µM); 112% and 110% (compound 0.3 µM). Besides, the IC50 (curve of compound) is greater than 300 nM.
`Nc1ccn(C2OC(CO)C(O)C2(F)F)c(=O)n1` (configuration not stated) + CNC(=O)c1ccc(Nc2nc(OC3CCCC3)c3c(-c4ccc5nc(C)oc5c4)c[nH]c3n2)c(OC)c1: the IC50 runs as follows: under setting [1], 36 nM; under setting [2], less than 31.6 nM; under setting [3], less than 31.6 nM; under setting [4], less than 31.6 nM; under setting [5], less than 31.6 nM; under setting [6], less than 31.6 nM. Moreover, the viability, T/C by setting is: (second compound 0.0316 µM, first compound 0.0316 µM) 54.3%; (second compound 0.0316 µM, first compound 0.1 µM) 18.6%; (second compound 0.0316 µM, first compound 0.316 µM) 8.71%; (second compound 0.0316 µM, first compound 1 µM) 7.4%; (second compound 0.0316 µM, first compound 3.16 µM) 11.2%; (second compound 0.0316 µM, first compound 10 µM) 13.6%. The viability, T/C by setting is: (second compound 0.1 µM, first compound 0.0316 µM) 35.7%; (second compound 0.1 µM, first compound 0.1 µM) 22%; (second compound 0.1 µM, first compound 0.316 µM) 8.15%; (second compound 0.1 µM, first compound 1 µM) 9.21%; (second compound 0.1 µM, first compound 3.16 µM) 13.3%; (second compound 0.1 µM, first compound 10 µM) 11.8%. For the same compound, the viability, T/C by setting is: (second compound 0.316 µM, first compound 0.0316 µM) 26.2%; (second compound 0.316 µM, first compound 0.1 µM) 19.5%; (second compound 0.316 µM, first compound 0.316 µM) 8.41%; (second compound 0.316 µM, first compound 1 µM) 7.45%; (second compound 0.316 µM, first compound 3.16 µM) 12.3%; (second compound 0.316 µM, first compound 10 µM) 12.2%. Also, the viability, T/C (second compound 1 µM, first compound 0.0316 µM) was 16.9%; the viability, T/C (second compound 1 µM, first compound 0.1 µM) is 14.9%; the viability, T/C (second compound 1 µM, first compound 0.316 µM) is 8.75%; the viability, T/C (second compound 1 µM, first compound 1 µM) is 7.6%; the viability, T/C (second compound 1 µM, first compound 3.16 µM) was 9.48%; the viability, T/C (second compound 1 µM, first compound 10 µM) is 8.93%. The viability, T/C is, setting by setting: (second compound 3.16 µM, first compound 0.0316 µM) 19.3%; (second compound 3.16 µM, first compound 0.1 µM) 14.5%; (second compound 3.16 µM, first compound 0.316 µM) 5.99%; (second compound 3.16 µM, first compound 1 µM) 5.99%; (second compound 3.16 µM, first compound 3.16 µM) 6.76%; (second compound 3.16 µM, first compound 10 µM) 6.01%. Further, the viability, T/C was 17.7% (second compound 10 µM, first compound 0.0316 µM); 13.9% (second compound 10 µM, first compound 0.1 µM); 6.66% (second compound 10 µM, first compound 0.316 µM); 6.31% (second compound 10 µM, first compound 1 µM); 6.89% (second compound 10 µM, first compound 3.16 µM); 5.15% (second compound 10 µM, first compound 10 µM).
Consider `COC1C=CCC(C)C(C)S(=O)(=O)NC(=O)c2ccc3c(c2)N(CC2CCC21)CC1(CCCc2cc(Cl)ccc21)CO3` (configuration not stated), for which the viability, T/C by setting is: (compound 0.0316 µM) 93.3%; (compound 0.1 µM) 92.9%; (compound 0.316 µM) 79.9%; (compound 1 µM) 21%; (compound 3.16 µM) 6.86%; (compound 10 µM) 3.28%. For the same compound, the IC50 (curve of compound) turned out to be 568 nM.
